ChEMBL document CHEMBL4270495, “Oleanane-, ursane-, and quinone methide friedelane-type triterpenoid derivatives: Recent advances in cancer treatment” (Eur J Med Chem, 2017)

Tests used:
Type in all cases: functional, cell-based
BGC-823 = test: Cytotoxicity in human BGC823 cells assessed as reduction in cell viability incubated for 72 hrs by MTT assay; details: BGC-823, 72 h
HeLa = test: Cytotoxicity in human HeLa cells assessed as reduction in cell viability incubated for 72 hrs by MTT assay
MDA-MB-231 = test: Cytotoxicity in human MDA-MB-231 cells assessed as reduction in cell viability incubated for 24 hrs by MTT assay; details: MDA-MB-231, 24 h
MCF7 = test: Cytotoxicity in human MCF7 cells assessed as reduction in cell viability incubated for 24 hrs by MTT assay; details: MCF7, 24 h
TERT-RPE1 = test: Cytotoxicity in human hTERT-RPE1 cells assessed as reduction in cell viability incubated for 24 hrs by MTT assay; details: RPE-1, 24 h
HT-29 = test: Cytotoxicity in human HT-29 cells assessed as reduction in cell viability incubated for 72 hrs by MTT assay; details: HT-29, 72 h
HepG2 = test: Cytotoxicity in human HepG2 cells assessed as reduction in cell viability incubated for 72 hrs by MTT assay; details: HepG2, 72 h

Row | SMILES | IC50 (BGC-823) [µM] | IC50 (MDA-MB-231) [µM] | IC50 (MCF7) [µM] | IC50 (TERT-RPE1) [µM] | further results
1 | C[C@H]1[C@H](C)CC[C@]2(C(=O)OCCBr)CC[C@]3(C)C(=CC[C@@H]4[C@@]5(C)CC[C@H](O)C(C)(C)[C@@H]5CC[C@]43C)[C@H]12 | 12.4 |  |  |  | 
2 | CC(=O)OC[C@@]1(C)[C@@H]2CC[C@]3(C)[C@H](CC=C4[C@@H]5[C@@H](C)[C@H](C)CC[C@]5(C(=O)NO)CC[C@]43C)[C@@]2(C)C[C@@H](OC(C)=O)[C@@H]1OC(C)=O |  |  |  |  | IC50 (HeLa): 1.62 µM
3 | CCOC(=O)/C=C/c1ccc(OC(=O)[C@@]2(C)CC[C@]3(C)CC[C@]4(C)C(=CC(=O)[C@@H]5[C@@]6(C)CC[C@H](OC(=O)[C@@H](N)CCSC)C(C)(C)[C@@H]6CC[C@]54C)[C@H]3C2)c(OC)c1 |  | 5.36 | 8.62 | 16.3 | 
4 | COC(=O)/C=C/c1ccc(OC)c(OC(=O)[C@@]2(C)CC[C@]3(C)CC[C@]4(C)C(=CC(=O)[C@@H]5[C@@]6(C)CC[C@H](OC(=O)[C@@H](N)CCSC)C(C)(C)[C@@H]6CC[C@]54C)[C@H]3C2)c1 |  | 4.56 | 8.7 | 8.92 | 
5 | Cc1nc(C)c(COC(=O)[C@]23CCC(C)(C)C[C@H]2C2=CC[C@@H]4[C@@]5(C)CC[C@H](OC(=O)[C@H](C)N)C(C)(C)[C@@H]5CC[C@@]4(C)[C@]2(C)CC3)nc1C | 4.47 |  |  |  | IC50 (HeLa): 7.69 µM; IC50 (HT-29): 4.77 µM; IC50 (HepG2): 2.32 µM
6 | C[C@H]1[C@H](C)CC[C@]2(C(=O)OCCCCN3CCCC3)CC[C@]3(C)C(=CC[C@@H]4[C@@]5(C)CC[C@H](O)C(C)(C)[C@@H]5CC[C@]43C)[C@H]12 | 7.2 |  |  |  | 
7 | CCOC(=O)/C=C/c1ccc(OC)c(OC(=O)[C@@]2(C)CC[C@]3(C)CC[C@]4(C)C(=CC(=O)[C@@H]5[C@@]6(C)CC[C@H](OC(=O)[C@@H](N)CC[Se]C)C(C)(C)[C@@H]6CC[C@]54C)[C@H]3C2)c1 |  | 3.27 | 6.93 | 10.1 | 
8 | C[C@H]1[C@H](C)CC[C@]2(C(=O)OCCN3CCOCC3)CC[C@]3(C)C(=CC[C@@H]4[C@@]5(C)CC[C@H](O)C(C)(C)[C@@H]5CC[C@]43C)[C@H]12 | 8.8 |  |  |  | 
9 | CCOC(=O)/C=C/c1ccc(OC(=O)[C@@]2(C)CC[C@]3(C)CC[C@]4(C)C(=CC(=O)[C@@H]5[C@@]6(C)CC[C@H](OC(=O)[C@@H](N)CCSC)C(C)(C)[C@@H]6CC[C@]54C)[C@H]3C2)cc1 |  | 2.31 | 2.65 | 5.65 | 
10 | COC(=O)/C=C/c1ccc(OC)c(OC(=O)[C@@]2(C)CC[C@]3(C)CC[C@]4(C)C(=CC(=O)[C@@H]5[C@@]6(C)CC[C@H](OC(=O)[C@@H](N)CC[Se]C)C(C)(C)[C@@H]6CC[C@]54C)[C@H]3C2)c1 |  | 3.13 | 5.12 | 9.79 | 
11 | C[C@H]1[C@H](C)CC[C@]2(C(=O)OCCCN3CCCC3)CC[C@]3(C)C(=CC[C@@H]4[C@@]5(C)CC[C@H](O)C(C)(C)[C@@H]5CC[C@]43C)[C@H]12 | 7.6 |  |  |  | 
12 | COC(=O)/C=C/c1ccc(OC(=O)[C@@]2(C)CC[C@]3(C)CC[C@]4(C)C(=CC(=O)[C@@H]5[C@@]6(C)CC[C@H](OC(=O)[C@@H](N)CCSC)C(C)(C)[C@@H]6CC[C@]54C)[C@H]3C2)cc1 |  | 6.43 | 7.24 | 8.48 | 
13 | CCOC(=O)/C=C/c1ccc(OC(=O)[C@@]2(C)CC[C@]3(C)CC[C@]4(C)C(=CC(=O)[C@@H]5[C@@]6(C)CC[C@H](OC(=O)[C@@H](N)CC[Se]C)C(C)(C)[C@@H]6CC[C@]54C)[C@H]3C2)cc1 |  | 1.86 | 2.42 | 7.08 | 
14 | CCOC(=O)/C=C/c1cccc(OC(=O)[C@@]2(C)CC[C@]3(C)CC[C@]4(C)C(=CC(=O)[C@@H]5[C@@]6(C)CC[C@H](OC(=O)[C@@H](N)CCSC)C(C)(C)[C@@H]6CC[C@]54C)[C@H]3C2)c1 |  | 1.92 | 5.79 | 6.63 | 
15 | C[C@H]1[C@H](C)CC[C@]2(C(=O)OCCCCN3CCCCC3)CC[C@]3(C)C(=CC[C@@H]4[C@@]5(C)CC[C@H](O)C(C)(C)[C@@H]5CC[C@]43C)[C@H]12 | 5 |  |  |  | 
16 | CC(=O)OC[C@@]1(C)[C@@H]2CC[C@]3(C)[C@H](CC=C4[C@@H]5[C@@H](C)[C@H](C)CC[C@]5(C(=O)N(C)O)CC[C@]43C)[C@@]2(C)C[C@@H](OC(C)=O)[C@@H]1OC(C)=O |  |  |  |  | IC50 (HeLa): 3.77 µM

Row | SMILES | IC50 (BGC-823) [µM] | IC50 (MDA-MB-231) [µM] | IC50 (MCF7) [µM] | IC50 (TERT-RPE1) [µM] | further results
17 | COC(=O)/C=C/c1ccc(OC(=O)[C@@]2(C)CC[C@]3(C)CC[C@]4(C)C(=CC(=O)[C@@H]5[C@@]6(C)CC[C@H](OC(=O)[C@@H](N)CC[Se]C)C(C)(C)[C@@H]6CC[C@]54C)[C@H]3C2)c(OC)c1 |  | 1.37 | 1.88 | 4.93 | 
18 | Cc1nc(C)c(COC(=O)[C@]23CCC(C)(C)C[C@H]2C2=CC[C@@H]4[C@@]5(C)CC[C@H](OC(=O)[C@@H](N)CO)C(C)(C)[C@@H]5CC[C@@]4(C)[C@]2(C)CC3)nc1C | 4.89 |  |  |  | IC50 (HeLa): 5.21 µM; IC50 (HT-29): 4.82 µM; IC50 (HepG2): 4.78 µM
19 | COC(=O)/C=C/c1ccc(OC(=O)[C@@]2(C)CC[C@]3(C)CC[C@]4(C)C(=CC(=O)[C@@H]5[C@@]6(C)CC[C@H](OC(=O)[C@@H](N)CC[Se]C)C(C)(C)[C@@H]6CC[C@]54C)[C@H]3C2)cc1 |  | 6.27 | 6.02 | 6.33 | 
20 | COC(=O)/C=C/c1cccc(OC(=O)[C@@]2(C)CC[C@]3(C)CC[C@]4(C)C(=CC(=O)[C@@H]5[C@@]6(C)CC[C@H](OC(=O)[C@@H](N)CCSC)C(C)(C)[C@@H]6CC[C@]54C)[C@H]3C2)c1 |  | 3.54 | 7.2 | 8.49 | 
21 | Cc1nc(C)c(COC(=O)[C@]23CCC(C)(C)C[C@H]2C2=CC[C@@H]4[C@@]5(C)CC[C@H](OC(=O)[C@@H]6CCCN6)C(C)(C)[C@@H]5CC[C@@]4(C)[C@]2(C)CC3)nc1C | 4.97 |  |  |  | IC50 (HeLa): 6.75 µM; IC50 (HT-29): 3.21 µM; IC50 (HepG2): 2.39 µM
22 | C[C@H]1[C@H](C)CC[C@]2(C(=O)OCCCCN3CCOCC3)CC[C@]3(C)C(=CC[C@@H]4[C@@]5(C)CC[C@H](O)C(C)(C)[C@@H]5CC[C@]43C)[C@H]12 | 6.5 |  |  |  | 
23 | C[C@H]1[C@H](C)CC[C@]2(C(=O)OCCCN3CCCCC3)CC[C@]3(C)C(=CC[C@@H]4[C@@]5(C)CC[C@H](O)C(C)(C)[C@@H]5CC[C@]43C)[C@H]12 | 7.2 |  |  |  | 
24 | CCOC(=O)/C=C/c1ccc(OC(=O)[C@@]2(C)CC[C@]3(C)CC[C@]4(C)C(=CC(=O)[C@@H]5[C@@]6(C)CC[C@H](OC(=O)[C@@H](N)CC[Se]C)C(C)(C)[C@@H]6CC[C@]54C)[C@H]3C2)c(OC)c1 |  | 3.49 | 8.45 | 12.3 | 
25 | COC(=O)/C=C/c1ccc(OC(=O)[C@@]2(C)CC[C@]3(C)CC[C@]4(C)C(=CC(=O)[C@@H]5[C@@]6(C)CC[C@H](OC(=O)[C@@H](N)CCSC)C(C)(C)[C@@H]6CC[C@]54C)[C@H]3C2)c(OC)c1 |  | 3.52 | 6 | 10.4 | 
26 | CCOC(=O)/C=C/c1ccc(OC)c(OC(=O)[C@@]2(C)CC[C@]3(C)CC[C@]4(C)C(=CC(=O)[C@@H]5[C@@]6(C)CC[C@H](OC(=O)[C@@H](N)CCSC)C(C)(C)[C@@H]6CC[C@]54C)[C@H]3C2)c1 |  | 4.67 | 8.81 | 12.5 | 
27 | C[C@H]1[C@H](C)CC[C@]2(C(=O)OCCCN3CCOCC3)CC[C@]3(C)C(=CC[C@@H]4[C@@]5(C)CC[C@H](O)C(C)(C)[C@@H]5CC[C@]43C)[C@H]12 | 7.3 |  |  |  | 
28 | CCOC(=O)/C=C/c1cccc(OC(=O)[C@@]2(C)CC[C@]3(C)CC[C@]4(C)C(=CC(=O)[C@@H]5[C@@]6(C)CC[C@H](OC(=O)[C@@H](N)CC[Se]C)C(C)(C)[C@@H]6CC[C@]54C)[C@H]3C2)c1 |  | 1.53 | 2.57 | 3.7 | 
29 | COC(=O)/C=C/c1cccc(OC(=O)[C@@]2(C)CC[C@]3(C)CC[C@]4(C)C(=CC(=O)[C@@H]5[C@@]6(C)CC[C@H](OC(=O)[C@@H](N)CC[Se]C)C(C)(C)[C@@H]6CC[C@]54C)[C@H]3C2)c1 |  | 2.46 | 3.48 | 4.55 | 
30 | C[C@H]1[C@H](C)CC[C@]2(C(=O)OCCN3CCCC3)CC[C@]3(C)C(=CC[C@@H]4[C@@]5(C)CC[C@H](O)C(C)(C)[C@@H]5CC[C@]43C)[C@H]12 | 4.5 |  |  |  | 
31 | C[C@H]1[C@H](C)CC[C@]2(C(=O)OCCCCBr)CC[C@]3(C)C(=CC[C@@H]4[C@@]5(C)CC[C@H](O)C(C)(C)[C@@H]5CC[C@]43C)[C@H]12 [BROMOBUTYL-3BETA-HYDROXY-URS-12-EN-28-OATE] | 10 |  |  |  | 
32 | C[C@H]1[C@H](C)CC[C@]2(C(=O)OCCCBr)CC[C@]3(C)C(=CC[C@@H]4[C@@]5(C)CC[C@H](O)C(C)(C)[C@@H]5CC[C@]43C)[C@H]12 [BROMOPROPYL-3BETA-HYDROXY-URS-12-EN-28-OATE] | 6.5 |  |  |  | 
